Assay results from ChEMBL document CHEMBL1201862, “PubChem BioAssay data set” (2004).
Active and inactive are the calls of the source.

Tests used:
[1] = biological target: T1, Sentrin-specific protease 1 (Homo sapiens, UniProt Q9P0U3); experiment: SENP1 catalytic domain blockers, concentration series – biochemical, kinetic FRET, dose response (AID 651697); assay type: functional; conditions: read-out: IC50_Mean
[2] = biological target: T1, Sentrin-specific protease 1; experiment: Dose response confirmation of small molecule inhibitors of the catalytic domain of the SUMO protease, SENP1 in a FRET assay.; assay type: functional; conditions: read-out: IC50_Mean
Melanocortin receptor 4 = Melanocortin receptor 4 (Homo sapiens, UniProt P32245); assay type: functional, cell-based;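 further: Cell-based assay with luminescence read-out, confirmatory dose-response testing for agonist activity of biased ligands at MC4R; human U2OS cells with tagged receptor and beta-arrestin; potency of agonists that increase receptor coupling to beta-arrestin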
[3] = biological target: DNA (cytosine-5)-methyltransferase 1 (Homo sapiens, UniProt P26358); experiment: inhibition of DNA methylation by DNMT1 – biochemical, fluorescent molecular beacon, confirmation (AID 602386); assay type: functional
[4] = biological target: T2, Carboxy-terminal domain RNA polymerase II polypeptide A small phosphatase 1 (Homo sapiens, UniProt Q9GZU7); experiment: CTDSP1 inhibitors, concentration-response, biochemical, absorbance readout, ultra-high-throughput screen actives (AID 540297); assay type: functional
T2 sequence (Q9GZU7 whole entry): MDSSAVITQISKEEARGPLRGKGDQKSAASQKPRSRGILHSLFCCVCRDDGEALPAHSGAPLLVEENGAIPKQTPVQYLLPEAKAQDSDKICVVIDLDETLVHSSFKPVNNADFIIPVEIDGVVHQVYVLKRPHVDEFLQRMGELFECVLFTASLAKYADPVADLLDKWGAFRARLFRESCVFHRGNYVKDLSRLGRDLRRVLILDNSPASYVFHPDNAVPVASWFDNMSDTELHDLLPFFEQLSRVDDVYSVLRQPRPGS

[5] = biological target: DNA repair and recombination protein RAD54-like (Homo sapiens, UniProt Q92698); experiment: RAD54 Holliday junction migration blockers – biochemical, fluorescence, cherry-picked samples, dose series, confirmation (AID 651657); assay type: functional
Chain of DNA repair and recombination protein RAD54-like (Q92698 whole entry): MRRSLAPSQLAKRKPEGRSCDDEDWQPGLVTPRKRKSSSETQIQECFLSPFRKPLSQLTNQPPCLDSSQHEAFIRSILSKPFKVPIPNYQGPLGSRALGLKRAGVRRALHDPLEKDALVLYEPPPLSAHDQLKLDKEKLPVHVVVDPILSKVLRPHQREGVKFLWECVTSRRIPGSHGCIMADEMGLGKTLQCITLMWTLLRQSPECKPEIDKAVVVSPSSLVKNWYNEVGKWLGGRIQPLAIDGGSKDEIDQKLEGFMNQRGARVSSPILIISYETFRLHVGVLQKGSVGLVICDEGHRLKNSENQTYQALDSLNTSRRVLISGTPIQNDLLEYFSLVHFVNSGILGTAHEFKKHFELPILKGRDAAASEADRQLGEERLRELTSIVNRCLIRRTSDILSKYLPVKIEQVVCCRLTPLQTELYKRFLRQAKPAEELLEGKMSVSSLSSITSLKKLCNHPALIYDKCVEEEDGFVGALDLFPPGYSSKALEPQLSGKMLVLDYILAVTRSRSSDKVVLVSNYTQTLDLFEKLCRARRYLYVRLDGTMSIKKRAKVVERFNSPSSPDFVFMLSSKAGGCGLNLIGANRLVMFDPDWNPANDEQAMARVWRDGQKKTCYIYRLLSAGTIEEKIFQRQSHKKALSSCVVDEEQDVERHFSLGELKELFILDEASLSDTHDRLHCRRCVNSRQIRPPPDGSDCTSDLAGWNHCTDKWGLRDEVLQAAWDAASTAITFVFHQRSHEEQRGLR

DNA topoisomerase = DNA topoisomerase (Yersinia pestis, UniProt A0A2S9PM60); experiment: Yersinia topoisomerase I cleavage product accumulation – biochemical, cherry-pick, dose response (AID 588525)
Beta-lactamase [6] = biological target: T3, Beta-lactamase (Pseudomonas aeruginosa, UniProt Q79MP6); experiment: inhibition of IMP-1 beta-lactamase activity – biochemical, epi-absorbance, selectivity assay for VIM-2 inhibitor project, dose response (AID 1920)
T3 sequence (Q79MP6 whole entry): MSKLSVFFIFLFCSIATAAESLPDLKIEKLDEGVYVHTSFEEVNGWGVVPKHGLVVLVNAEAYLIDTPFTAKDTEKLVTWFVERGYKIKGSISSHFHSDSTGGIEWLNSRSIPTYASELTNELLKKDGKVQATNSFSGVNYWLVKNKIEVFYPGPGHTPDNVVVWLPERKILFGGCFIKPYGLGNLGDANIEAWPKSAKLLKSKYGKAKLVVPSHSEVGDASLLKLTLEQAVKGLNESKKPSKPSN

Beta-lactamase [7] = biological target: Beta-lactamase (Salmonella choleraesuis (strain SC-B67), UniProt Q5J463); experiment: Epi-absorbance-based counterscreen for selective VIM-2 inhibitors: dose response biochemical high throughput screening assay to identify inhibitors of TEM-1 serine-beta-lactamase.
Chain of Beta-lactamase (Salmonella choleraesuis (strain SC-B67), UniProt Q5J463) (Q5J463 whole entry): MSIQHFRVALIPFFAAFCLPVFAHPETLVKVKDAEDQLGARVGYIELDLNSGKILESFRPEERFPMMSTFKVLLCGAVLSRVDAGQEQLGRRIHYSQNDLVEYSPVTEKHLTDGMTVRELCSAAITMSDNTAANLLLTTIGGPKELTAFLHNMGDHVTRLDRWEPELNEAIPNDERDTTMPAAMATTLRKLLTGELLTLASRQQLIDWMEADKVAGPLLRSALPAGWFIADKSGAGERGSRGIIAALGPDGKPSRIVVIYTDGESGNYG

Beta-lactamase [8] = biological target: T3, Beta-lactamase; experiment: […] counterscreen for selective VIM-2 inhibitors: dose response biochemical high throughput screening assay to identify inhibitors of IMP-1 metallo-beta-lactamase.
[9] = biological target: cAMP-dependent protein kinase catalytic subunit alpha (Homo sapiens, UniProt P17612); assay type: functional
[10] = biological target: Serine/threonine-protein kinase pim-1 (Homo sapiens, UniProt P11309); assay type: functional
[11] = biological target: Glycogen synthase kinase-3 beta (Homo sapiens, UniProt P49841); assay type: functional;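 further: value comes from a broad kinome profiling panel, with GSK3B as the panel member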
[12] = biological target: Interleukin-1 receptor-associated kinase 4 (Homo sapiens, UniProt Q9NWZ3); assay type: functional
[13] = biological target: Homeodomain-interacting protein kinase 2 (Homo sapiens, UniProt Q9H2X6); assay type: functional;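 further: measured within a kinome-wide kinase profiling panel, HIPK2 being one panel member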
[14] = biological target: Cell division cycle 7-related protein kinase (Homo sapiens, UniProt O00311); assay type: functional;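 further: value obtained from a kinome-wide kinase panel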
[15] = biological target: Dual specificity protein kinase CLK4 (Homo sapiens, UniProt Q9HAZ1); assay type: functional
[16] = biological target: ADP-ribosylation factor GTPase-activating protein 1 (Rattus norvegicus, UniProt Q62848); experiment: Fluorescence polarization-based biochemical high throughput dose response screening assay to identify inhibitors of ADP-ribosylation factor GTPase activating protein 1 (ARFGAP1).; assay type: functional
Chain of ADP-ribosylation factor GTPase-activating protein 1 (Q62848 whole entry): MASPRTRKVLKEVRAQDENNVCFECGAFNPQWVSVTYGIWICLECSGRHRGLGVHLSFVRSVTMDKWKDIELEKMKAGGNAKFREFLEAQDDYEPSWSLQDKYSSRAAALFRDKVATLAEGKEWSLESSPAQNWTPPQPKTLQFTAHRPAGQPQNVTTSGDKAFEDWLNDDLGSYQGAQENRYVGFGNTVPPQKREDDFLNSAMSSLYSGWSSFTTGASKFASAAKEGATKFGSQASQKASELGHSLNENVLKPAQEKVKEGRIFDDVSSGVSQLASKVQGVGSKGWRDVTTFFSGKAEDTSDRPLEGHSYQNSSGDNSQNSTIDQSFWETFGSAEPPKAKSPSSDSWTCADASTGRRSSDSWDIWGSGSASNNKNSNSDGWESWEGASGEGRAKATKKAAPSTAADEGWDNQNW

[17] = biological target: Dual specificity protein phosphatase 3 (Homo sapiens, UniProt P51452); experiment: VHR phosphatase inhibition, dose response, selectivity assay for STEP inhibitor project, biochemical (AID 602374); assay type: functional; conditions: read-out: IC50_Mean
[18] = biological target: Tyrosine-protein phosphatase non-receptor type 5 (Homo sapiens, UniProt P54829); experiment: PTPN5 enzyme inhibition – biochemical, fluorescence intensity, uHTS hits, confirmation (AID 602372); assay type: functional; conditions: read-out: IC50_Mean
[19] = biological target: Tyrosine-protein phosphatase non-receptor type 11 (Homo sapiens, UniProt Q06124); experiment: PTPN11 enzyme inhibitors – biochemical, selectivity assay for STEP inhibitor project, dose response (AID 602367); assay type: functional; conditions: read-out: IC50_Mean
Chain of Tyrosine-protein phosphatase non-receptor type 11 (Q06124 whole entry): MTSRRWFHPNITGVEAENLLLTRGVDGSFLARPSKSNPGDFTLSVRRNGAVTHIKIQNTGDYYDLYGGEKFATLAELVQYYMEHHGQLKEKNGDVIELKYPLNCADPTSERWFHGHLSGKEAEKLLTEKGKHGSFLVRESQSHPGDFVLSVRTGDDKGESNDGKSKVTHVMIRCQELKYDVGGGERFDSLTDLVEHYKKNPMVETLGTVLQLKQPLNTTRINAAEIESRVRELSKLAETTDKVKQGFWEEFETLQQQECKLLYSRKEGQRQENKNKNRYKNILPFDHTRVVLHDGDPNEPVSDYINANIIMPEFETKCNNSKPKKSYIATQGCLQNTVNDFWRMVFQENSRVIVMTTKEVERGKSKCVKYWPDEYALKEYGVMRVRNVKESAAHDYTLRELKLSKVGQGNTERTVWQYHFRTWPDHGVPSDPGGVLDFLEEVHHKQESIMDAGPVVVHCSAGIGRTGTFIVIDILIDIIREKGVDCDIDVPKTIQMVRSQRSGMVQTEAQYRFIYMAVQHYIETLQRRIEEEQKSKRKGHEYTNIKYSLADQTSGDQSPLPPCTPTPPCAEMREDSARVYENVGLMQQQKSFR

[20] = biological target: Adenosylmethionine-8-amino-7-oxononanoate aminotransferase (Mycobacterium tuberculosis, UniProt P9WQ81); experiment: Mycobacterium tuberculosis BioA enzyme inhibitor Measured in Biochemical System Using Plate Reader - 2163-02_Inhibitor_Dose_CherryPick_Activity.; assay type: functional, Mycobacterium tuberculosis UT205
Beta-galactosidase = Beta-galactosidase (Escherichia coli, UniProt Q8VNN2); experiment: Dose response counterscreen for EBI2 assay utilizing the enzyme, b-galactosidase.; assay type: functional
Chain of Beta-galactosidase (Q8VNN2 whole entry): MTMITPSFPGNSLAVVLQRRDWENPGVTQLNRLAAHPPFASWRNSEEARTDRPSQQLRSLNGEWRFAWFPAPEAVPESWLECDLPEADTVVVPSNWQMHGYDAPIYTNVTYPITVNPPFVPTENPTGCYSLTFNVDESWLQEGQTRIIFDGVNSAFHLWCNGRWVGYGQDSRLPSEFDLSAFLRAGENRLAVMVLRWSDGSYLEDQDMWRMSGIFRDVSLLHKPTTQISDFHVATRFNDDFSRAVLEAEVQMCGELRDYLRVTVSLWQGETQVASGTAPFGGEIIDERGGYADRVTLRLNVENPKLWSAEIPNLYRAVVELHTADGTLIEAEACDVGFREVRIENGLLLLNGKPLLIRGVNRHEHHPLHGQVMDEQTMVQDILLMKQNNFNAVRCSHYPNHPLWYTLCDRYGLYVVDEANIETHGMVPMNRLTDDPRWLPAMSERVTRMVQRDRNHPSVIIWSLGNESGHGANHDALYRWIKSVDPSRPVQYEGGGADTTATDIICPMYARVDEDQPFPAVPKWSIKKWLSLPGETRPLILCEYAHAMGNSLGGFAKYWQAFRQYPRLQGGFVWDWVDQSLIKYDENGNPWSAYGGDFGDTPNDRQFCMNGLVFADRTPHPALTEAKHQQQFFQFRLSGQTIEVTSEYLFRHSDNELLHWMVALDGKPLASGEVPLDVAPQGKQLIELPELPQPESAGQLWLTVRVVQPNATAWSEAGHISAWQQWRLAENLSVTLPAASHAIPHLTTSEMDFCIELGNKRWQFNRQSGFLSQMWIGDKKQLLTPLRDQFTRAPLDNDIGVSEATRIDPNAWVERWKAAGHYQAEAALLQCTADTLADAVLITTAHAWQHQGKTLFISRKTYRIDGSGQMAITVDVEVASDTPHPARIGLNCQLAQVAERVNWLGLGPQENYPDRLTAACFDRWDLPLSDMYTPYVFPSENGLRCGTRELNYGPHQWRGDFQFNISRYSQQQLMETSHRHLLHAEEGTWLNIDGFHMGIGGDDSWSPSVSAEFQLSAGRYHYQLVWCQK

[21] = biological target: 72 kDa type IV collagenase (Homo sapiens, UniProt P08253); experiment: Dose Response validation of uHTS RPN11 inhibitor hits using a MMP-2 Fluorescence assay.; assay type: functional
Prothrombin = Prothrombin (Bos taurus, UniProt P00735); experiment: thrombin protease inhibitors – biochemical, fluorescence polarization, uHTS hits, dose response (AID 602369); assay type: functional
[22] = biological target: 26S proteasome non-ATPase regulatory subunit 14 (Homo sapiens, UniProt O00487); experiment: inhibition of proteasome subunit RPN11 – biochemical, fluorescence polarization, uHTS hits, confirmation (AID 602368); assay type: functional
[23] = biological target: Arf-GAP with SH3 domain, ANK repeat and PH domain-containing protein 1 (Homo sapiens, UniProt Q9ULH1); assay type: functional;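 further: biochemical fluorescence polarization dose–response screen measuring inhibition of ASAP1; ASAP1 GAP domain stimulating GTP hydrolysis by truncated human ARF1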
[24] = NIH3T3 cell viability loss, ATP content – CellTiter-Glo luminescence, cherry-pick, set 2, cytotoxicity control for HSP40 inhibitor project, dose response (AID 624265); assay type: functional
[25] = Luminescence Cell-Based Dose Retest to Confirm Inhibitors of Cancer Stem Cells. [Related pubchem assays (depositor defined):AID2717, AID2721]; assay type: functional; conditions: Homo sapiens
[26] = biological target: T4, Matrix metalloproteinase-14 (Homo sapiens, UniProt P50281); experiment: Dose Response confirmation of uHTS hits for a small molecule inhibitors of MT1-MMP activation in a fluorescence assay set 2.; assay type: functional
[27] = biological target: T4, Matrix metalloproteinase-14; experiment: SAR confirmation of uHTS hits for a small molecule inhibitors of MT1-MMP activation in a fluorescence assay.; assay type: functional
[28] = biological target: T5, Mitochondrial peptide methionine sulfoxide reductase (Bos taurus, UniProt P54149); assay type: functional;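 further: absorbance read-out, biochemical high-throughput dose-response screen for MsrA inhibitors, confirmatory; recombinant bovine MsrA coupled to E. coli TrxB with NADPH and selenocystamine; potency is for inhibitors of MsrA activity on DMSO substrate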
T5 sequence (P54149 whole entry): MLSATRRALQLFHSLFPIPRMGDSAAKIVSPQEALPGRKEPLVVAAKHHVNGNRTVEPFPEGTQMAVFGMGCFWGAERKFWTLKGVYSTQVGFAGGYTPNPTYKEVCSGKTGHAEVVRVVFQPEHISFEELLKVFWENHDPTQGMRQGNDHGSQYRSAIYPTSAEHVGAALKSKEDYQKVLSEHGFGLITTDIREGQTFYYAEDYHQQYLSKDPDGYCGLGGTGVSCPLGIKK

Protein Wnt-3a = Protein Wnt-3a (Mus musculus, UniProt P27467); experiment: antagonism of Wnt3a pathway luciferase reporter – Wnt-LIGHT cells, luminescence, selectivity assay for Gli-SUFU antagonist project, dose response (AID 651570); assay type: functional; conditions: read-out: IC50_Mean;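 further: Wnt-LIGHT reporter cells stimulated with conditioned medium from Wnt3a-producing cells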
[29] = non-specific 3'UTR reporter inhibition in Clone20-Shn3RL – cell-based, Renilla luciferase, cherry-picked, counter-screen for Shn3 inhibitor project, dose response (AID 624133); assay type: functional
[30] = reduction of Shn3 3'UTR-driven luciferase in osteoblasts – cell-based, Clone20 osteoblasts, firefly luciferase, cherry-picked, dose response (AID 624132); assay type: functional;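 further: firefly luciferase luminescence from reporter carrying the Shn3 3'UTR in osteoblasts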
[31] = loss of viability in HepG2 cells – cell-based, CellTiter-Glo, cherry-picked, cytotoxicity control for Shn3 inhibitor project, dose response (AID 624134); assay type: functional
[32] = biological target: Long-chain-fatty-acid--AMP ligase FadD28 (Mycobacterium tuberculosis, UniProt P9WQ59); experiment: Fluorescence polarization aasay to screen for inhibitors that compete for the binding of FadD28 to a bisubstrate Measured in Biochemical System Using Plate Reader - 2147-01_Inhibitor_Dose_CherryPick_Activity.; assay type: functional, Mycobacterium tuberculosis H37Rv
[33] = biological target: Low molecular weight phosphotyrosine protein phosphatase (Homo sapiens, UniProt P24666); assay type: functional; conditions: read-out: IC50_Mean;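 further: Dose-response confirmation assay measuring inhibition of LMPTP enzyme activity by fluorescence intensity read-out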
Chain of Low molecular weight phosphotyrosine protein phosphatase (P24666 whole entry): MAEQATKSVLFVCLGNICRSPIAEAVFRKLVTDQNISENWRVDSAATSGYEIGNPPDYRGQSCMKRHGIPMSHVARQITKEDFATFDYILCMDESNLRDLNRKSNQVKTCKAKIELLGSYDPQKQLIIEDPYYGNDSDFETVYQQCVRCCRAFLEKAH

Cysteine protease ATG4B = Cysteine protease ATG4B (Homo sapiens, UniProt Q9Y4P1); assay type: functional;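 further: Fluorescence-based dose-response confirmation assay measuring inhibition of ATG4B activity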
Phospholipase A2 = Phospholipase A2 (Homo sapiens, UniProt P04054); assay type: functional;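 further: confirmatory dose-response counterscreen on phospholipase A2, testing hits that came from an ultra-high-throughput screen for ATG4B inhibitors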
Vero = experiment: viability loss in Vero cells – cell-based, plate reader, cherry-pick samples, cytotoxicity control, dose response (AID 687020); assay type: functional; conditions: Chlorocebus sabaeus
A549 = experiment: viability loss in A549 cells – cell-based, plate reader, cherry-pick samples, cytotoxicity control, dose response (AID 687028); assay type: functional; conditions: Homo sapiens
[34] = Counterscreen for inhibitors of Trypanosoma brucei methionyl tRNA synthetase (MetRS): Luminescence-based cell-based high throughput dose response assay to identify compounds that are cytotoxic to Jurkat human T lymphocyte cells.; assay type: functional
[35] = biological target: T6, Methionyl-tRNA synthetase, putative (Trypanosoma brucei brucei, UniProt Q38C91); assay type: functional, Trypanosoma brucei brucei strain 927/4 GUTat10.1
T6 sequence (Q38C91 whole entry): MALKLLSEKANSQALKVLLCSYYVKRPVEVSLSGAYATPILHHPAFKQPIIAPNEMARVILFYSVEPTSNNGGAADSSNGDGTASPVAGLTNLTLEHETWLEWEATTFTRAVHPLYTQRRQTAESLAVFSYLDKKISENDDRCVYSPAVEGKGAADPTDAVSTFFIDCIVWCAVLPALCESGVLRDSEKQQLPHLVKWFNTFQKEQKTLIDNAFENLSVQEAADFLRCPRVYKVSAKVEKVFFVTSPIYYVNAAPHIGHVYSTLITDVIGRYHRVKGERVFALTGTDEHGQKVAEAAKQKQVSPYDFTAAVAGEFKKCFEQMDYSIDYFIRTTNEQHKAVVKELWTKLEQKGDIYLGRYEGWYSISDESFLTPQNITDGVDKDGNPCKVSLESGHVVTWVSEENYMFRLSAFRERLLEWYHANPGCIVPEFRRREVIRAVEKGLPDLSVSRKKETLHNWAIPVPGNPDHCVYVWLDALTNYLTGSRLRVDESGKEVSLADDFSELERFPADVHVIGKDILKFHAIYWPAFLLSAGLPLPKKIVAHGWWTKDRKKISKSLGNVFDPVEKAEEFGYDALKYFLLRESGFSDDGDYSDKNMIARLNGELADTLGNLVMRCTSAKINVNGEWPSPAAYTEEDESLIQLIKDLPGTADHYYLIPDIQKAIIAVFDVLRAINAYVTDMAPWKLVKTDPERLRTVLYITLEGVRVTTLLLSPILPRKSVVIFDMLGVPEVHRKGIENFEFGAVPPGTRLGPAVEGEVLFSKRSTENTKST

[36] = biological target: T6, Methionyl-tRNA synthetase, putative; assay type: functional, Trypanosoma brucei brucei strain 927/4 GUTat10.1; remark: listed apart in the source

T1 sequence (Q9P0U3 whole entry, the tested form may be a part): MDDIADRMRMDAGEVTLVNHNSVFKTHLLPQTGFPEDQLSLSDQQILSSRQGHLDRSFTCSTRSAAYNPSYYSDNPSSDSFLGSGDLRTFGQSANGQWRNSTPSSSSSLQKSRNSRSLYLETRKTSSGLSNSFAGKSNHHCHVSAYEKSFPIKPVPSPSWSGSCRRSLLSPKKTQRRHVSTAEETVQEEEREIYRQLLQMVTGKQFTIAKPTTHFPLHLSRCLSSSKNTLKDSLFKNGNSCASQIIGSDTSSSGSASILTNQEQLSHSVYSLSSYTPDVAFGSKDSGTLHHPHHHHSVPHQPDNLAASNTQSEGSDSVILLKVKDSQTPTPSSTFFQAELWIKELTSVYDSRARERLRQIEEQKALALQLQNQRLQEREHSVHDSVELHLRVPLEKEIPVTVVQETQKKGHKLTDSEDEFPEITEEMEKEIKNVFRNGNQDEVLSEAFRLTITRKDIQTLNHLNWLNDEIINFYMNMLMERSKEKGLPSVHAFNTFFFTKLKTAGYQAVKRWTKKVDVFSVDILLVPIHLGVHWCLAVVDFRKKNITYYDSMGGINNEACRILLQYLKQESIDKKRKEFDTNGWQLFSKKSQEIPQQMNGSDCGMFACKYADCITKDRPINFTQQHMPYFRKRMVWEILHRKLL

COc1ccc(-c2ccc3c(c2)S(=O)(=O)c2cccc(C(=O)NCc4cc(C)oc4C(F)(F)F)c2C3=O)cc1OC
IC50 [1]: 15.8 µM (active)
IC50 [2]: 13.3 µM (active)
EC50 (Melanocortin receptor 4): > 89.2 µM (inactive)

Cc1ccc(C(=O)NN2CC(=O)C(c3nc(-c4cccc([N+](=O)[O-])c4)cs3)=C2N)cc1
IC50 [3]: > 99 µM (inactive)
IC50 [4]: 4.06 µM (active)

O=C(COc1ccc2c(c1)oc(=O)c1ccccc12)NCCCN1CCOCC1
AC50 [5]: 29.9 µM (active)

Oc1nnc(Cc2ccc(-c3ccc(Cl)cc3)o2)c2ccccc12
AC50 (DNA topoisomerase): 9.08 µM (active)

Fc1ccccc1-c1nnc(S)n1Cc1ccccc1
IC50 (Beta-lactamase [6]): > 59.6 µM (inactive)
IC50 (Beta-lactamase [7]): > 59.6 µM (inactive)
IC50 (Beta-lactamase [8]): > 59.6 µM (inactive)

O=[N+]([O-])c1cccc(-c2nnc3ccc(N4CCCCC4)nn23)c1
Ki [9]: > 7.94 µM (inactive)
Ki [10]: 0.0316 µM (active)
Ki [11]: 0.0398 µM (active)
Ki [12]: 10 µM (active)
Ki [13]: 0.0126 µM (active)
Ki [14]: 0.00631 µM (active)
Ki [15]: 0.01 µM (active)

CC1CC(C)CN(C(=O)COC(=O)c2cn(C)c3ccccc23)C1 (stereo not given)
IC50 [16]: 28.4 µM (inactive)

O=C(N/N=C/c1cccc(Br)c1)c1ccc(N2CCCC2=O)cc1
IC50 [17]: 7.56 µM (active)
IC50 [18]: 11.7 µM (active)
IC50 [19]: 7.26 µM (active)

COc1cccc(NC(=O)N2C[C@H](O)COC[C@@H]3O[C@@H](CC(=O)N(C)C)CC[C@H]32)c1
AC50 [20]: 0.596 µM (active)

CCOC(=O)C1CCN(C2=NC(=O)/C(=C/c3ccc(Cl)cc3)S2)CC1
IC50 (Beta-galactosidase): > 80 µM (inactive)

N#Cc1ccc(-c2ccc(OCC(=O)NCC(=O)Nc3ccc(F)c(F)c3F)cc2)cc1
IC50 [21]: > 100 µM (inactive)
IC50 (Prothrombin): > 100 µM (inactive)
IC50 [22]: 12.7 µM (active)
IC50 [23]: 26.1 µM (inactive)

COc1ccc(-c2oc3ccccc3c2C#Cc2cncn2C)cc1
AbsAC35_uM [24]: 54.48 µM
AC50 [25]: 2.05 µM (active)

CN1/C(=C\C(=O)c2cncc(Br)c2)C(C)(C)c2ccccc21
IC50 [26]: 23.7 µM (inactive)
IC50 [27]: 66.5 µM (inactive)

C/C(=N\Nc1ccc(S(N)(=O)=O)cc1[N+](=O)[O-])c1ccc2c(c1)OCO2
IC50 [28]: 155 µM (inactive)

CN(Cc1ccc(OC(F)F)cc1)C(=O)c1cccc(S(=O)(=O)N2CCN(Cc3ccccc3)CC2)c1
IC50 (Protein Wnt-3a): 6.19 µM (active)
AC50 [29]: 2.94 µM (active)
AC50 [30]: 2.37 µM (active)
AC50 [31]: 57.2 µM (active)

COc1cccc(-n2nnnc2SCC(=O)Nc2cccc(C)n2)c1
AC50 [32]: 50.1 µM (active)

O=C(COc1ccc2c(-c3ccccc3)cc(=O)oc2c1)Nc1ccc(CCO)cc1
IC50 [33]: 40.7 µM (inactive)

S=C(NCc1ccccc1)Nc1cccc(Cl)c1
IC50 (Cysteine protease ATG4B): 13.3 µM (active)
IC50 (Phospholipase A2): 8.8 µM (active)

Cc1cccc(C(=O)N2CCC(=O)N([C@H](COCc3ccc(Cl)cc3)Cc3ccccc3)CC2)c1
AC50 (Vero): 33.6 µM (active)
AC50 (A549): 28.5 µM (active)

Cc1c(NS(=O)(=O)c2cccc(C(=O)NCc3cccc(Cl)c3)c2)c(=O)n(-c2ccccc2)n1C
IC50 [34]: 83.3 µM (inactive)
IC50 [35]: 21.7 µM (inactive)
IC50 [36]: 119 µM (inactive)
